Molecular target: Ghrelin/GHRP/GHS Receptor (Rattus norvegicus, UniProt O08725)
Test: In vitro cell culture method: GH release from cell culture of pituitary cells, peptide alone or plus stimulator
Format: cell-based
Parameters: from cell culture of pituitary cells; endogenous in cells; host or cells: dispersed primary rat anterior pituitary cells, 4 days in culture
Conditions: for GH release, first line of entry (mark P + S): stimulator 1 ng/ml
Method: The peptides were synthesized by the solid phase method and purified by HPLC. GH was determined by Radioimmunoassay (RIA).
In vitro GH Release-Female rats of the CD-1 strain were housed in a constant temperature room at 24° C. with 14 h light and 10 h darkness. The rats were fed Purina Rat chow and water at libitum. All studies were started between 0800-1000 hours. Pituitaries of mature female Sprague Dawley rats were rapidly removed after decapitation, neurointermediate lobe discarded and then placed in a pH 7.4 buffer. The pituitaries were cut into ˜3-mm pieces and then transferred to a flask containing HEPS buffer with trypsin and incubated at 37° C. Cells were triturated several times during this period. After dispersion, the cells were collected by centrifugation, wash with DMEM and placed into culture well. Cell cultures were maintained for 4 days at 37° with 8% CO2 added to the incubator atmosphere. After 4 days in culture, cells were washed with lactated Ringer's solution adjusted to pH 7.2-7.4 and then vehicle, peptide alone or peptide plus stimulator was added to media. Incubation time was 60-120 minutes after which media was removed from each well for GH determination. The GH RIA reagents were distributed by the NIH. Control data was collected from cell cultures treated with only the corresponding vehicle in the absence of peptide or stimulator. Control stimulated data was collected from cell cultures treated with stimulator alone in the absence of any peptide.

Sequence of Ghrelin/GHRP/GHS Receptor (O08725 whole entry): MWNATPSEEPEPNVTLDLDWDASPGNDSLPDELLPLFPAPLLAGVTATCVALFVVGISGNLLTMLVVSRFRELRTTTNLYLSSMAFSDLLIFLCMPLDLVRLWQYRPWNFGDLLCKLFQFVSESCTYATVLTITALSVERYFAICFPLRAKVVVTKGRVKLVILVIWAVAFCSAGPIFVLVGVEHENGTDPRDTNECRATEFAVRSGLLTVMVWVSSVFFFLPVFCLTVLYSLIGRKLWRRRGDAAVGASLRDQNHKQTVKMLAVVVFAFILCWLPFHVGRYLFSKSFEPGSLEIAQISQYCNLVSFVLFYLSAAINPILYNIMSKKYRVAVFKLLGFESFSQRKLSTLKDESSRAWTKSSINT

| Compound | GH release, first line of entry (mark P + S) (Table 11, 10 μg/ml) | GH release, second line of entry (no mark) (Table 10, 10 μg/ml) | GH release, first line of entry (mark P + S) (Table 10, 10 μg/ml) | GH release, second line of entry (no mark) (Table 10, 30 μg/ml) | GH release, first line of entry (mark P + S) (Table 10, 30 μg/ml) | other results |
| --- | --- | --- | --- | --- | --- | --- |
| COc1ccccc1C1CCN(C(=O)[C@@H](Cc2c[nH]c3ccccc23)NC(=O)C(C)(C)N)CC1 [(R)—N-(3-(1H-indol-3-yl)-1-(4-(2-methoxyphenyl)piperidin-1-yl)-1-oxopropan-2-yl)-2-amino-2-methylpropanamide] | 365 ± 2 ng/mL |  |  |  |  | GH release, second line of entry (no mark) (Table 11, 10 μg/ml): 441 ± 21 ng/mL; GH release, second line of entry (no mark) (Table 11, 30 μg/ml): 384 ± 16 ng/mL; GH release, first line of entry (mark P + S) (Table 11, 30 μg/ml): 375 ± 30 ng/mL |
| NCC[C@H](N)C(=O)N[C@H](COCc1ccc2ccccc2c1)C(=O)N1CCC(c2ccccc2)CC1 [(S)-2,4-diamino-N—((R)-3-(naphthalen-2-ylmethoxy)-1-oxo-1-(4-phenylpiperidin-1-yl)propan-2-yl)butanamide] | 794 ± 34 ng/mL |  |  |  |  | GH release, second line of entry (no mark) (Table 11, 10 μg/ml): 644 ± 33 ng/mL; GH release, second line of entry (no mark) (Table 11, 30 μg/ml): 529 ± 20 ng/mL; GH release, first line of entry (mark P + S) (Table 11, 30 μg/ml): 504 ± 20 ng/mL |
| N[C@H](COCc1ccccc1)C(=O)N1CCN(c2ccccc2)CC1 [D Ser(BZL)-N′-phenyl-N-piperazinamide, (R)-2-amino-3-(benzyloxy)-1-(4-phenylpiperazin-1-yl)propan-1-one] |  | 719 ± 26 ng/mL | 585 ± 10 ng/mL | 435 ± 0 ng/mL | 368 ± 2 ng/mL |  |
| N[C@H](Cc1c[nH]c2ccccc12)C(=O)N1CCC(c2ccccc2)CC1 [DTrp-4-phenylpiperdinamide, (R)-2-amino-3-(1H-indol-3-yl)-1-(4-phenylpiperidin-1-yl)propan-1-one] |  | 344 ± 6 ng/mL | 520 ± 61 ng/mL | 486 ± 29 ng/mL | 577 ± 24 ng/mL | GH release, second line of entry (no mark) (Table 10, 1 μg/ml): 1085 ± 1 ng/mL; GH release, first line of entry (mark P + S) (Table 10, 1 μg/ml): 815 ± 26 ng/mL; GH release, second line of entry (no mark) (Table 10, 3 μg/ml): 917 ± 4 ng/mL; GH release, first line of entry (mark P + S) (Table 10, 3 μg/ml): 390 ± 35 ng/mL |
| C=C(C)CON=C(c1ccccc1)c1ccccc1 [O-(2-methylallyl) benzophonone oxime, O-(2-methylallyl)benzophenone oxime] |  | 1281 ± 58 ng/mL | 929 ± 28 ng/mL | 699 ± 53 ng/mL | 616 ± 23 ng/mL |  |

Further lines, with some results ahead:

| GH release, first line of entry (mark P + S) (Table 11, 10 μg/ml) | GH release, second line of entry (no mark) (Table 10, 10 μg/ml) | GH release, first line of entry (mark P + S) (Table 10, 10 μg/ml) | GH release, second line of entry (no mark) (Table 10, 30 μg/ml) | GH release, first line of entry (mark P + S) (Table 10, 30 μg/ml) | Compound | other results |
| --- | --- | --- | --- | --- | --- | --- |
| 245 ± 16 ng/mL |  |  |  |  | CC(=O)N[C@@H](COCc1ccccc1)C(=O)N[C@@H](CCCCN)C(=O)N[C@H](Cc1c[nH]c2ccccc12)C(=O)N1CCC(c2ccccc2)CC1 [(S)—N—((R)-3-(1H-indol-3-yl)-1-oxo-1-(4-phenylpiperidin-1-yl)propan-2-yl)-2-((S)-2-acetamido-3-(benzyloxy)propanamido)-6-aminohexanamide] | GH release, first line of entry (mark P + S) (Table 11, 1 μg/ml): 680 ± 13 ng/mL; GH release, first line of entry (mark P + S) (Table 11, 3 μg/ml): 489 ± 41 ng/mL |
|  | 571 ± 32 ng/mL | 388 ± 41 ng/mL | 399 ± 24 ng/mL | 273 ± 39 ng/mL | CC(=O)NCCCC[C@H](NC(=O)[C@@H](N)COCc1ccccc1)C(=O)N[C@@H](Cc1c[nH]c2ccccc12)C(=O)N1CCC(c2ccccc2)CC1 [(S)—N—((S)-3-(1H-indol-3-yl)-1-oxo-1-(4-phenylpiperidin-1-yl)propan-2-yl)-6-acetamido-2-((S)-2-amino-3-(benzyloxy)propanamido)hexanamide] |  |
|  | 353 ± 10 ng/mL | 369 ± 30 ng/mL |  |  | NCCCC[C@@H](NC(=O)[C@@H](CO)NC(=O)c1ccccc1)C(=O)N[C@@H](Cc1c[nH]c2ccccc12)C(=O)N1CCC(c2ccccc2)CC1 [N—((R)-1-((R)-1-((S)-3-(1H-indol-3-yl)-1-oxo-1-(4-phenylpiperidin-1-yl)propan-2-ylamino)-6-amino-1-oxohexan-2-ylamino)-3-hydroxy-1-oxopropan-2-yl)benzamide] | GH release, second line of entry (no mark) (Table 10, 3 μg/ml): 432 ± 25 ng/mL; GH release, first line of entry (mark P + S) (Table 10, 3 μg/ml): 393 ± 54 ng/mL |

From patent US8536120B2 (The Administrators of The Tulane Educational Fund, priority 2006, dated 2013)
